Source: US6541523B2, “Methods for treating or preventing fibromyalgia using very low doses of cyclobenzaprine” (Vela Pharmaceuticals, Inc., priority 1999, dated 2003)
Where two headings read alike, the source gives them in different places.

Legend:
[1] = tested on: patients with fibromyalgia
Description: Quantification of improvement may be measured according to methods known in the art. For example, pain may be measured using tender point count, the McGill Pain Questionnaire, the Arthritis Impact Measurement Scales (AIMS), the Sickness Impact Profile (SIP), the Health Assessment Questionnaire (HAQ) functional disability index, the Symptom Checklist-90R, and dolorimeter scores. […] (Alarcon, Graciela, et al., “Advances in the Treatment of Fibromyalgia: Current Status and Future Directions”, Am. J. Med. Sciences, 315:397-404 (1998).)
(§1) The quality of sleep (“sleep disturbance”) may be determined, inter alia, by asking the patient if he/she awakened tired or nonrefreshed “never,” “seldom,” “often or usually,” or “always.” Replies of “often or usually” or “always” may be scored as positive and other replies as negative. Patients reports of well-being or relief from “zombie” or “spacey” feelings, feelings of being “run down,” and having difficultly concentrating during waking hours are indications of better quality of sleep or deep, refreshing sleep.
They were on a dose of ⅓ tablet of cyclobenzaprine (3 33 mg).
patient four, a person homemaker, presented with complaints of chest pain previously attributed to their known history of mitral valve prolapse. They also complained of a several year history of fatigue.
patient two, a active grandparent, presented with the new onset of cervical and lumbar muscular pains associated with poor quality sleep and fatigue. The patient was diagnosed with fibromyalgia.
patient seven, a person homemaker, presented with complaints of diffuse pain and fatigue.
patient three, a person homemaker, presented with complaints of right trapezius spasm. They had recently been started on paroxetine, 20 mg p.o. qd for mild depression, and had also noted disrupted sleep quality with frequent awakening with resultant fatigue and daytime somnolence. […] They were diagnosed with fibromyalgia and was begun on cyclobenzaprine 10 mg p.o. qHS for the diagnosis of fibromyalgia and possible sleep disturbance due to the SSRI paroxetine.
patient one, a person homemaker, had recently given birth to a healthy baby, and in during the later stages of pregnancy and in the post-partem period noted fatigue and exhaustion associated with multiple areas of muscular soreness.
patient six, a executive, presented with complaints of “burning pains” in their muscles, associated with sleep disturbance with frequent awakening and resultant fatigue.
patient five, a executive, had been tried on multiple medications by a “fibromyalgia specialist,” who according to the patient had performed over $2,000 in blood tests, diagnosing “yeast infection in the blood” and multiple allergies.

[2] = tested on: patients with sleep disturbance; conditions: single patient report
Description: as §1

fibromyalgia patients [3] = conditions: cited from earlier work
[4] = tested on: cyclobenzaprine-treated patients; conditions: cited from earlier work
fibromyalgia patients [5] = conditions: five mgs per day; some fibromyalgia patients; anecdotal; cited from earlier work
fibromyalgia patients [6] = conditions: twenty to forty mgs per day; twelve fibromyalgia patients; cited from earlier work
[7] = ⅓ tablet (3 33 mg), single patient report

CNCCC=C1c2ccccc2CCc2ccccc21 [nortriptyline]
Response to trial of nortriptyline ([1]; fibromyalgia patient not helped by cyclobenzaprine 2.5 mg, dose not given): did well

CN(C)CCC=C1c2ccccc2C=Cc2ccccc21 [cyclobenzaprine, 3-(5H-Dibenzo[a,d]cyclohepten-5-ylidene)-N,N-dimethyl-1-propanamine]
Sleep and energy response ([2]; ¼ to ½ tablet (2.5-5 mg)): improved sleep and increased energy, with resolution of their daytime somnolence | Side effects ([2]; ½ tablet (5 mg)): “grogginess” during the day | Difference in efficacy between regimens (fibromyalgia patients [3]; 10 mg/day vs 30 mg/day): no significant difference in efficacy | Tender points, quality of sleep and other symptoms (fibromyalgia patients [3]; 10 mg/day): decline in the number of tender points and improvement in the quality of sleep, anxiety, fatigue, irritable bowel syndrome and stiffness | Tender points, quality of sleep and other symptoms (fibromyalgia patients [3]; 30 mg/day): decline in the number of tender points and improvement in the quality of sleep, anxiety, fatigue, irritable bowel syndrome and stiffness | Less common side effects ([4]; cyclobenzaprine treatment): nausea, tiredness, constipation, blurred vision, nervousness, confusion, abdominal pain and discomfort | Organ toxicity ([4]; recommended doses): No indications of organ toxicity | Toxic effects on overdose ([4]; three individuals who ingested between 260 to 900 mg): Toxic effects were reported | Response to treatment (fibromyalgia patients [5]): responded “favorably” | Symptom response ([1]; 10 mg p.o. qHS, single patient report): helping their muscular pains | Course after stopping cyclobenzaprine ([1]; discontinuation of ¼ tablet (2.5 mg), single patient report): immediate return of all of their previous symptoms | Effect on sleep disturbance, fatigue and diffuse pain ([1]; less than 5 mg/day qHS, applicant's summary for many patients): surprisingly effective at treating the sleep disturbance | Symptom response ([1]; ½ tablet (5 mg) p.o. qHS, single patient report): symptoms abated | Side effects [1, 7]: no adverse effects | Symptom response [1, 7]: alleviated their symptoms | Alpha non-REM EEG sleep anomaly and mood ratings (fibromyalgia patients [6]): did not favorably change | Pain (tender point count and dolorimetry) (fibromyalgia patients [6]): did not experience decreased pain
